Measurements taken from ChEMBL document CHEMBL1201862, “PubChem BioAssay data set” (2004).
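Step 1: Grow cells in 96-well plates. Step 2: Expose to compound for 48 hours at 5 concentrations. Step 3: Interpolate endpoints linearly; if unreached, use highest concentration. GI50 is the concentration that inhibits growth by half.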 Active and inactive are the calls of the source. No stated cut-off is given here; in the data, active = GI50 up to about 1.1 µM and inactive = higher.

Tests used:
Experiment in all cases: inhibition of tumour cell growth, NCI panel, 48 h
[1] = system: CAKI-1
[2] = system: CCRF-CEM
[3] = system: DMS-273
[4] = system: HCT-116
[5] = system: HOP-92
[6] = system: LOX IMVI
[7] = system: M14
[8] = system: NCI-H226
[9] = system: OVCAR-3
[10] = system: OVCAR-4
[11] = system: OVCAR-5
[12] = system: OVCAR-8
[13] = system: SK-MEL-5
[14] = system: SNB-75
[15] = system: U-251
[16] = system: UACC-257
[17] = system: UO-31
[18] = system: BT-549
[19] = system: MCF7
[20] = system: NCI/ADR-RES

| Structure (SMILES) | GI50 [1] | GI50 [2] | GI50 [3] | GI50 [4] | GI50 [5] | GI50 [6] | GI50 [7] | GI50 [8] | GI50 [9] | GI50 [10] | GI50 [11] | GI50 [12] | GI50 [13] | GI50 [14] | GI50 [15] | GI50 [16] | GI50 [17] | GI50 [18] | GI50 [19] | GI50 [20] |
| --- | --- | --- | --- | --- | --- | --- | --- | --- | --- | --- | --- | --- | --- | --- | --- | --- | --- | --- | --- | --- |
| COC(=O)C(Cc1c[nH]c2ccccc12)NC(=O)C(Cc1c[nH]c2ccccc12)NC(=O)OCc1ccccc1 (centres undefined) | 19.9 µM (inactive) | 21.7 µM (inactive) | 16 µM (inactive) | 17.9 µM (inactive) | 20 µM (inactive) | 18.3 µM (inactive) | 18.2 µM (inactive) | 22.1 µM (inactive) | 15.5 µM (inactive) | 16.4 µM (inactive) | 17.6 µM (inactive) | 17.9 µM (inactive) | 29.5 µM (inactive) | 21.6 µM (inactive) | 16.9 µM (inactive) | > 100 µM (inactive) | 19.3 µM (inactive) | – | – | – |
| CCOC(=O)C1N(S(=O)(=O)c2ccc(C)cc2)CCC12c1ccccc1N(C(C)=O)C2c1ccc(OC)c(OC)c1 (centres undefined) | 76.7 µM (inactive) | > 100 µM (inactive) | > 100 µM (inactive) | 47.4 µM (inactive) | 47.8 µM (inactive) | > 100 µM (inactive) | > 100 µM (inactive) | 19.9 µM (inactive) | > 100 µM (inactive) | 71.1 µM (inactive) | > 100 µM (inactive) | > 100 µM (inactive) | > 100 µM (inactive) | 74 µM (inactive) | > 100 µM (inactive) | > 100 µM (inactive) | 42.7 µM (inactive) | – | – | – |
| CCCCCCCCCCCCCCCCCCNC(=O)OCC(CNS(=O)(=O)CCC[n+]1cccc2ccccc21)COC (centres undefined) | 7.82 µM (inactive) | 1.06 µM (active) | 0.251 µM (active) | 1.35 µM (inactive) | 0.838 µM (active) | 2.01 µM (inactive) | 3.7 µM (inactive) | 1.05 µM (active) | 3.99 µM (inactive) | 1.31 µM (inactive) | 2.13 µM (inactive) | 2.07 µM (inactive) | 2.06 µM (inactive) | 2.47 µM (inactive) | 0.596 µM (active) | 2.8 µM (inactive) | 27.9 µM (inactive) | 2.18 µM (inactive) | 1.55 µM (inactive) | 18.5 µM (inactive) |
| CC[C@](C)(O)C(=O)O[C@H]1C(=O)O[C@@H]2C[C@H]3C(C)=C[C@H](O)[C@@H](O)[C@]3(C)[C@H]3[C@@]4(O)OC[C@]32[C@@H]1[C@@H](C)[C@H]4O | 27.5 µM (inactive) | 4.19 µM (inactive) | 17.9 µM (inactive) | 14.7 µM (inactive) | 4.28 µM (inactive) | 14.5 µM (inactive) | – | 17.7 µM (inactive) | 13.5 µM (inactive) | 58.6 µM (inactive) | 104 µM (inactive) | 34 µM (inactive) | 9.48 µM (inactive) | 24.2 µM (inactive) | 12 µM (inactive) | 47.8 µM (inactive) | 96.2 µM (inactive) | – | 11.6 µM (inactive) | > 205 µM (inactive) |
| CC(=O)Nc1ccc(OCC(O)CO)cc1 (centres undefined) | > 100 µM (inactive) | 48.2 µM (inactive) | > 100 µM (inactive) | > 100 µM (inactive) | > 100 µM (inactive) | 25.5 µM (inactive) | > 100 µM (inactive) | > 100 µM (inactive) | > 100 µM (inactive) | > 100 µM (inactive) | > 100 µM (inactive) | > 100 µM (inactive) | > 100 µM (inactive) | > 100 µM (inactive) | 56.5 µM (inactive) | > 100 µM (inactive) | > 100 µM (inactive) | – | – | – |
| CC(C)(C)C(=O)Nc1ccccc1Br | > 100 µM (inactive) | > 100 µM (inactive) | > 100 µM (inactive) | > 100 µM (inactive) | > 100 µM (inactive) | > 100 µM (inactive) | > 100 µM (inactive) | > 100 µM (inactive) | > 100 µM (inactive) | > 100 µM (inactive) | > 100 µM (inactive) | > 100 µM (inactive) | > 100 µM (inactive) | > 100 µM (inactive) | > 100 µM (inactive) | > 100 µM (inactive) | > 100 µM (inactive) | – | – | – |
| Cc1cc(N)c2cc(NC(=O)CCCCCCCCC(=O)Nc3ccc4nc(C)cc(N)c4c3)ccc2n1 | > 100 µM (inactive) | 10.7 µM (inactive) | 7.19 µM (inactive) | 5.07 µM (inactive) | 33.7 µM (inactive) | 22.2 µM (inactive) | > 84.9 µM (inactive) | 2.43 µM (inactive) | 98.6 µM (inactive) | > 100 µM (inactive) | > 56 µM (inactive) | > 100 µM (inactive) | 5.58 µM (inactive) | 32.9 µM (inactive) | 18.4 µM (inactive) | > 50.4 µM (inactive) | > 100 µM (inactive) | – | – | – |
| COc1ccc(C(=O)C(C(=O)CCC(=O)Nc2ccc(Cl)c(Cl)c2)c2ccc(OC)cc2)cc1 (centres undefined) | > 100 µM (inactive) | > 100 µM (inactive) | > 100 µM (inactive) | > 100 µM (inactive) | > 100 µM (inactive) | > 100 µM (inactive) | > 100 µM (inactive) | > 100 µM (inactive) | > 100 µM (inactive) | > 100 µM (inactive) | > 100 µM (inactive) | > 100 µM (inactive) | > 100 µM (inactive) | 44.9 µM (inactive) | > 100 µM (inactive) | > 100 µM (inactive) | > 100 µM (inactive) | – | – | – |
| CCC(C)CCOC(=O)c1ccc(/N=C\c2ccc(/C=N/c3ccc(C(=O)OCCC(C)CC)cc3)cc2)cc1 (centres undefined) | > 100 µM (inactive) | > 100 µM (inactive) | > 100 µM (inactive) | > 100 µM (inactive) | > 100 µM (inactive) | > 100 µM (inactive) | > 100 µM (inactive) | > 100 µM (inactive) | > 100 µM (inactive) | > 100 µM (inactive) | > 100 µM (inactive) | > 100 µM (inactive) | > 100 µM (inactive) | > 100 µM (inactive) | > 100 µM (inactive) | > 100 µM (inactive) | 41.1 µM (inactive) | – | – | – |
| C=CC1=CC(C)C[C@]1(O)C(=O)OC (some centres undefined) | < 0.01 µM (active) | < 0.01 µM (active) | < 0.01 µM (active) | < 0.01 µM (active) | < 0.01 µM (active) | < 0.01 µM (active) | < 0.01 µM (active) | < 0.01 µM (active) | < 0.01 µM (active) | < 0.01 µM (active) | < 0.01 µM (active) | < 0.01 µM (active) | > 100 µM (inactive) | < 0.01 µM (active) | < 0.01 µM (active) | < 0.01 µM (active) | < 0.01 µM (active) | – | – | – |
